Assay results from patent US11739070B2, “C5A receptor modulators” (IDORSIA PHARMACEUTICALS LTD, priority 2018, dated 2023).

Molecular target: T1, C5AR1 (Homo sapiens, UniProt P21730)
T1 construct: host or cells: CHO-K1
T1 sequence (P21730 1-350): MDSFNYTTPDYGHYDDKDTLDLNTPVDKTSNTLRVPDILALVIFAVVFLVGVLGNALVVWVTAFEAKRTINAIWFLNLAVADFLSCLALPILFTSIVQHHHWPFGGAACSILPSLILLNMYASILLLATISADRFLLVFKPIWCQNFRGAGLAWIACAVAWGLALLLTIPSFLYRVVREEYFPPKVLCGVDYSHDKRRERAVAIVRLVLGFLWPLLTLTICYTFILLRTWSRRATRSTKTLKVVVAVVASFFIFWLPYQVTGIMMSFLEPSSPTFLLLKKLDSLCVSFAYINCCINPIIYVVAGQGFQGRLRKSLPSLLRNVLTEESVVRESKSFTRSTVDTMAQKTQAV
Assay: hC5a DISCO IC50 assay (PathHunter beta-arrestin, antagonist mode)
Assay type: cell-based
Details: CHO-K1 C5AR1 beta-arrestin cell line; antagonist vs 1-10 nM C5a agonist; geometric mean values; read-out: C5aR IC50
Experimental: II. Biological Assays In Vitro Assay hC5a DISCO IC50 Assay
5 μl Antagonist at 6-fold end concentration or DMSO control is added to assay medium and subsequently 5 μl 1-10 nM C5a agonist at 6 fold end concentration. Cells are centrifuged for 1 min at 1000 rpm and incubated for 1.5 hour in at 37° C. Plates are equilibrated at room temperature for several minutes before adding 12 μl/well Detection Reagent (PathHunter Detection Kit, DiscoverX, Cat #93-0001). Plates are centrifuged for 1 min at 1000 rpm and incubated for 45 minutes at RT before being measured on a Fluostar Optima, BMG Labtech. IC50 values are calculated from a serial dilution range of antagonist using inhouse software and given in nmol/l.
The calculated IC50 values may fluctuate depending on the daily cellular assay performance. Fluctuations of this kind are known to those skilled in the art. Average IC50 values from several measurements are given as geometric mean values.

| Structure (SMILES) | IC50 [nM] |
| --- | --- |
| COc1cccc2c1n(Cc1ccccc1C(F)(F)F)c(=O)n2[C@H]1CN(C(=O)OC(C)(C)C)C[C@@H]1C (relative stereo) [Example 196, (3R*,4S*)-3-[4-Methoxy-2-oxo-3-(2-trifluoromethyl-benzyl)-2,3-dihydro-benzoimidazol-1-yl]-4-methyl-pyrrolidine-1-carboxylic acid tert-butyl ester] | 139 |
| COc1cccc2c1n(Cc1ccccc1C(F)(F)F)c(=O)n2[C@H]1CN(c2c(C)cccc2F)C[C@@H]1C (relative stereo) [Example 198, 1-[(3R*,4S*)-1-(2-Fluoro-6-methyl-phenyl)-4-methyl-pyrrolidin-3-yl]-4-methoxy-3-(2-trifluoromethyl-benzyl)-1,3-dihydro-benzoimidazol-2-one] | 15 |
| COc1cccc2c1n(Cc1ccccc1C(F)(F)F)c(=O)n2[C@H]1CN(C(=O)OC(C)(C)C)C[C@H]1C (relative stereo) [Example 199, (3R*,4R*)-3-[4-Methoxy-2-oxo-3-(2-trifluoromethyl-benzyl)-2,3-dihydro-benzoimidazol-1-yl]-4-methyl-pyrrolidine-1-carboxylic acid tert-butyl ester] | 119 |
| COc1cccc2c1n(Cc1ccccc1C(F)(F)F)c(=O)n2[C@H]1CN(c2c(C)cccc2F)C[C@H]1C (relative stereo) [Example 200, 1-[(3R*,4R*)-1-(2-Fluoro-6-methyl-phenyl)-4-methyl-pyrrolidin-3-yl]-4-methoxy-3-(2-trifluoromethyl-benzyl)-1,3-dihydro-benzoimidazol-2-one] | 19 |
| COc1cccc2c1n(Cc1ccccc1C(F)(F)F)c(=O)n2C1CCN(C(=O)OC(C)(C)C)CC1 [Example 1, 4-[4-Methoxy-2-oxo-3-(2-trifluoromethyl-benzyl)-2,3-dihydro-benzoimidazol-1-yl]-piperidine-1-carboxylic acid tert-butyl ester] | 621 |
| COc1cccc2c1n(Cc1ccccc1C(F)(F)F)c(=O)n2C1CCN(c2c(C)cccc2C)CC1 [Example 2, 1-[1-(2,6-Dimethyl-phenyl)-piperidin-4-yl]-4-methoxy-3-(2-trifluoromethyl-benzyl)-1,3-dihydro-benzoimidazol-2-one] | 18 |
| [2H]c1ccc(OC)c2c1n(C1CCN(c3c(C)cccc3C)CC1)c(=O)n2Cc1ccccc1C(F)(F)F [Example 3, 1-(1-(2,6-dimethylphenyl)piperidin-4-yl)-4-methoxy-3-(2-(trifluoromethyl)benzyl)-1,3-dihydro-benzoimidazol-2-one-7-d] | 23 |
| COc1cccc2c1n(Cc1ccccc1C(F)(F)F)c(=O)n2C1CCN(c2ccccc2)CC1 [Example 4, 4-Methoxy-1-(1-phenyl-piperidin-4-yl)-3-(2-trifluoromethyl-benzyl)-1,3-dihydro-benzoimidazol-2-one] | 131 |
| COc1cccc2c1n(Cc1ccccc1C(F)(F)F)c(=O)n2C1CCN(Cc2ccc(Cl)cc2Cl)CC1 [Example 5, 1-[1-(2,4-Dichloro-benzyl)-piperidin-4-yl]-4-methoxy-3-(2-trifluoromethyl-benzyl)-1,3-dihydro-benzoimidazol-2-one] | 284 |
| COc1cccc2c1n(Cc1ccccc1C(F)(F)F)c(=O)n2[C@@H]1CCN(C(=O)OC(C)(C)C)C1 [Example 6, (R)-3-[4-Methoxy-2-oxo-3-(2-trifluoromethyl-benzyl)-2,3-dihydro-benzoimidazol-1-yl]-pyrrolidine-1-carboxylic acid tert-butyl ester] | 66 |
| COc1cccc2c1n(Cc1ccccc1C(F)(F)F)c(=O)n2[C@@H]1CCN(c2c(F)cccc2F)C1 [Example 7, 1-[(R)-1-(2,6-Difluoro-phenyl)-pyrrolidin-3-yl]-4-methoxy-3-(2-trifluoromethyl-benzyl)-1,3-dihydro-benzoimidazol-2-one] | 11 |
| COc1cccc2c1n(Cc1ccccc1C(F)(F)F)c(=O)n2C1CCN(c2c(F)cccc2F)CC1 [Example 9, 1-[1-(2,6-Difluoro-phenyl)-piperidin-4-yl]-4-methoxy-3-(2-trifluoromethyl-benzyl)-1,3-dihydro-benzoimidazol-2-one] | 32 |
| COc1cccc2c1n(Cc1ccccc1C(F)(F)F)c(=O)n2C1CCN(c2c(C=O)c(C3CC3)nn2C)CC1 [Example 14, 3-Cyclopropyl-5-{4-[4-methoxy-2-oxo-3-(2-trifluoromethyl-benzyl)-2,3-dihydro-benzoimidazol-1-yl]-piperidin-1-yl}-1-methyl-1H-pyrazole-4-carbaldehyde] | 216 |
| COc1ccccc1N1CC[C@@H](n2c(=O)n(Cc3ccccc3C(F)(F)F)c3c(OC)cccc32)C1 [Example 16, 4-Methoxy-1-[(R)-1-(2-methoxy-phenyl)-pyrrolidin-3-yl]-3-(2-trifluoromethyl-benzyl)-1,3-dihydro-benzoimidazol-2-one] | 19 |
| COc1cccc2c1n(Cc1ccccc1OC(F)(F)F)c(=O)n2[C@@H]1CCN(C(=O)OC(C)(C)C)C1 [Example 20, (R)-3-[4-Methoxy-2-oxo-3-(2-trifluoromethoxy-benzyl)-2,3-dihydro-benzoimidazol-1-yl]-pyrrolidine-1-carboxylic acid tert-butyl ester] | 36 |
| COc1cccc2c1n(Cc1ccccc1C(F)(F)F)c(=O)n2C1CCN(c2cc(C3CC3)nn2C)CC1 [Example 21, 1-[1-(5-Cyclopropyl-2-methyl-2H-pyrazol-3-yl)-piperidin-4-yl]-4-methoxy-3-(2-trifluoromethyl-benzyl)-1,3-dihydro-benzoimidazol-2-one] | 3440 |
| COc1cccc2c1n(Cc1ccccc1OC(F)(F)F)c(=O)n2[C@@H]1CCN(c2c(C)cccc2C)C1 [Example 22, 1-[(R)-1-(2,6-Dimethyl-phenyl)-pyrrolidin-3-yl]-4-methoxy-3-(2-trifluoromethoxy-benzyl)-1,3-dihydro-benzoimidazol-2-one] | 30 |
| COc1cccc2c1n(Cc1ccccc1OC(F)(F)F)c(=O)n2[C@@H]1CCN(c2c(F)cccc2F)C1 [Example 23, 1-[(R)-1-(2,6-Difluoro-phenyl)-pyrrolidin-3-yl]-4-methoxy-3-(2-trifluoromethoxy-benzyl)-1,3-dihydro-benzoimidazol-2-one] | 8 |
| COc1cccc2c1n(Cc1ccccc1C(F)(F)F)c(=O)n2C1CCN(c2c(Cl)c(C3CC3)nn2C)CC1 [Example 24, 1-[1-(4-Chloro-5-cyclopropyl-2-methyl-2H-pyrazol-3-yl)-piperidin-4-yl]-4-methoxy-3-(2-trifluoromethyl-benzyl)-1,3-dihydro-benzoimidazol-2-one] | 330 |
| COc1cccc2c1n(Cc1ccccc1C(F)(F)F)c(=O)n2C1CCN(c2c(C)c(C3CC3)nn2C)CC1 [Example 25, 1-[1-(5-Cyclopropyl-2,4-dimethyl-2H-pyrazol-3-yl)-piperidin-4-yl]-4-methoxy-3-(2-trifluoromethyl-benzyl)-1,3-dihydro-benzoimidazol-2-one] | 185 |
| COC(=O)N1CC[C@@H](n2c(=O)n(Cc3ccccc3C(F)(F)F)c3c(OC)cccc32)C1 [Example 26, (R)-3-[4-Methoxy-2-oxo-3-(2-trifluoromethyl-benzyl)-2,3-dihydro-benzoimidazol-1-yl]-pyrrolidine-1-carboxylicacid methyl ester] | 459 |
| COc1cccc2c1n(Cc1ccccc1C(F)(F)F)c(=O)n2[C@@H]1CCN(C(=O)c2ccccc2)C1 [Example 27, 1-((R)-1-Benzoyl-pyrrolidin-3-yl)-4-methoxy-3-(2-trifluoromethyl-benzyl)-1,3-dihydro-benzoimidazol-2-one] | 3340 |
| COc1cccc2c1n(Cc1ccccc1C(F)(F)F)c(=O)n2C1CCN(C(=O)C(C)(C)C)CC1 [Example 28, 1-[1-(2,2-Dimethyl-propionyl)-piperidin-4-yl]-4-methoxy-3-(2-trifluoromethyl-benzyl)-1,3-dihydro-benzoimidazol-2-one] | 1330 |
| COC(=O)N1CCC(n2c(=O)n(Cc3ccccc3C(F)(F)F)c3c(OC)cccc32)CC1 [Example 29, 4-[4-Methoxy-2-oxo-3-(2-trifluoromethyl-benzyl)-2,3-dihydro-benzoimidazol-1-yl]-piperidine-1-carboxylic acid methyl ester] | 182 |
| COc1cccc2c1n(Cc1ccccc1C(F)(F)F)c(=O)n2C1CCN(C(=O)c2ccccc2)CC1 [Example 30, 1-(1-Benzoyl-piperidin-4-yl)-4-methoxy-3-(2-trifluoromethyl-benzyl)-1,3-dihydro-benzoimidazol-2-one] | 1520 |
| COc1cccc2c1n(Cc1ccccc1C(F)(F)F)c(=O)n2[C@@H]1CCN(C)C1 [Example 31, 4-Methoxy-1-((R)-1-methyl-pyrrolidin-3-yl)-3-(2-trifluoromethyl-benzyl)-1,3-dihydro-benzoimidazol-2-one] | 3450 |
| COc1cccc2c1n(Cc1ccccc1C(F)(F)F)c(=O)n2[C@@H]1CCN(C(C)C)C1 [Example 32, 1-((R)-1-Isopropyl-pyrrolidin-3-yl)-4-methoxy-3-(2-trifluoromethyl-benzyl)-1,3-dihydro-benzoimidazol-2-one] | 642 |
